This note sets out measurements from patent publication US20240239861A1, “GLUCAGON-RECEPTOR SELECTIVE POLYPEPTIDES AND METHODS OF USE THEREOF” (i2O Therapeutics, Inc., priority 2016, published 2024).

One assay deals with human GCGR (Homo sapiens, UniProt P47871). The assay can be described thus: Peptide-receptor mediated cAMP accumulation (LANCE Ultra cAMP) in CHO-K1 cells transfected with human GCGR. It counts as cell-based. A general note: Changes in cAMP serve as a functional read-out for many G protein-coupled receptors.
Sequence of human GCGR (P47871 26-477): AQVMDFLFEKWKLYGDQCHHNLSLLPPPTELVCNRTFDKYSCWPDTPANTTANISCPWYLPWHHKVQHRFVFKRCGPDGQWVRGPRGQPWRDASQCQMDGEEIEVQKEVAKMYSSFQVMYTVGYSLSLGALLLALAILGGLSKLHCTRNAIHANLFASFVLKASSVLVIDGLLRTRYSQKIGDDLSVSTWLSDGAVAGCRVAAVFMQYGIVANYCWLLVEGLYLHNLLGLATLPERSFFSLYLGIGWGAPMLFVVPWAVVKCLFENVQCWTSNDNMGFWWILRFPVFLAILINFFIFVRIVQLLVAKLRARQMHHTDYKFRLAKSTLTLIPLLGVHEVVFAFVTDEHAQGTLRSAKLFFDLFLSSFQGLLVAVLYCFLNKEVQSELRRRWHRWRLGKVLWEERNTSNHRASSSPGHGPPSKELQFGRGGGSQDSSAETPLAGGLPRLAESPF
The next assay concerns the target human GLP-1R (Homo sapiens, UniProt P43220). Description: Peptide-receptor mediated cAMP accumulation (LANCE Ultra cAMP) in CHO-K1 cells transfected with human GLP-1R. It counts as cell-based.
The mark [1] stands for this setting: hGLP1 pEC50 (cAMP mean (n = 3): 11 point curve starting at 1 nM, Table 3).

Like-named read-outs stand apart in the source and are kept apart here. *1 amine or outer side, *2 acyl side, *3 side chain or, on linkers, in order; H or OH if unused. Where a SMILES comes first, the peptide text is derived from it. Side-chain parts run from the residue outwards. [ ]: non-standard residue; d: D form. The star is where a group is joined. γGlu = O=C(O)[C@H](CCC(=O)[*:2])N[*:1]; Palmitoyl = CCCCCCCCCCCCCCCC(=O)*; Aib = CC(C)(N)C(=O)O

Sequence of human GLP-1R (P43220 24-463): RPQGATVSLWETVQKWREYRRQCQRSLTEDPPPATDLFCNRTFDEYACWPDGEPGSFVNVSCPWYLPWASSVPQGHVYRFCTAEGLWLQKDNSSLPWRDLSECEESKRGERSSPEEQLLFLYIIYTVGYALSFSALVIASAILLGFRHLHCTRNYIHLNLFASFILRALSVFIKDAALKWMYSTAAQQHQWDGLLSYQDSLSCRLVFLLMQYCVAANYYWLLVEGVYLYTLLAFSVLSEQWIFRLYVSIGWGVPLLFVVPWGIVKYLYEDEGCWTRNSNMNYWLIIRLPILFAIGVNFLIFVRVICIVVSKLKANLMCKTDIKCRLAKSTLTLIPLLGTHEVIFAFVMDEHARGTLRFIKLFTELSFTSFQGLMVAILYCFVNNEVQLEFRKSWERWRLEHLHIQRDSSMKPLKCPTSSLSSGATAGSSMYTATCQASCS

For `CCCCCCCCCCCCCCCC(=O)N[C@@H](CCC(=O)NCCCC[C@H](NC(=O)[C@@H](NC(=O)[C@H](Cc1ccccc1)NC(=O)[C@H](CCC(=O)O)NC(=O)[C@H](CCC(N)=O)NC(=O)[C@H](C)NC(=O)[C@H](CCCNC(=N)N)NC(=O)[C@H](CCCCN)NC(=O)C(C)(C)NC(=O)[C@H](CC(=O)O)NC(=O)[C@H](CC(C)C)NC(=O)[C@H](Cc1ccc(O)cc1)NC(=O)[C@H](CCCCN)NC(=O)[C@H](CO)NC(=O)[C@H](Cc1ccc(O)cc1)NC(=O)[C@H](CC(=O)O)NC(=O)[C@H](CO)NC(=O)[C@@H](NC(=O)[C@H](Cc1ccccc1)NC(=O)[C@@H](NC(=O)CNC(=O)[C@H](CCC(N)=O)NC(=O)[C@H](CO)NC(=O)[C@@H](N)Cc1c[nH]c2ccccc12)[C@@H](C)O)[C@@H](C)O)C(C)C)C(=O)N[C@@H](Cc1c[nH]c2ccccc12)C(=O)N[C@@H](CC(C)C)C(=O)N[C@@H](CCC(=O)O)C(=O)N[C@@H](CC(=O)O)C(=O)N[C@@H](CCC(=O)O)C(=O)N1CCC[C@H]1C(=O)N[C@@H](CO)C(=O)N[C@@H](CO)C(=O)NCC(=O)N[C@@H](C)C(=O)N1CCC[C@H]1C(=O)N1CCC[C@H]1C(=O)N1CCC[C@H]1C(=O)N[C@@H](CO)C(=O)O)C(=O)O` [Compound B18] (H-WSQGTFTSDYSKYLD[Aib]KRAQEFVK([γGlu-Palmitoyl])WLEDEPSSGAPPPS-OH), the EC50 on human GCGR (read-out: GluR pEC50 (converted)) is 0.0631 nM; at human GLP-1R (Table 7, GLP-1R, read-out: GLP-1R pEC50 (converted)), > 1000 nM.

As for `CC(C)C[C@H](NC(=O)[C@H](Cc1ccc(O)cc1)NC(=O)[C@H](CCCCN)NC(=O)[C@H](CO)NC(=O)[C@H](Cc1ccc(O)cc1)NC(=O)[C@H](CC(=O)O)NC(=O)[C@H](CO)NC(=O)[C@@H](NC(=O)[C@H](Cc1ccccc1)NC(=O)[C@@H](NC(=O)CNC(=O)[C@H](Cc1c[nH]cn1)NC(=O)[C@H](CO)NC(=O)[C@@H](N)Cc1ccc(O)cc1)[C@@H](C)O)[C@@H](C)O)C(=O)N[C@@H](CC(=O)O)C(=O)NC(C)(C)C(=O)N[C@@H](CCCCN)C(=O)N[C@@H](CCCNC(=N)N)C(=O)N[C@@H](C)C(=O)N[C@@H](CCC(N)=O)C(=O)N[C@@H](CCC(=O)O)C(=O)N[C@@H](Cc1ccccc1)C(=O)N[C@H](C(=O)NC(C)(C)C(=O)N[C@@H](Cc1c[nH]c2ccccc12)C(=O)N[C@@H](CC(C)C)C(=O)N[C@@H](CCC(=O)O)C(=O)N[C@@H](CC(=O)O)C(=O)N[C@@H](CCC(=O)O)C(=O)N1CCC[C@H]1C(=O)N[C@@H](CO)C(=O)N[C@@H](CO)C(=O)NCC(=O)N[C@@H](C)C(=O)N1CCC[C@H]1C(=O)N1CCC[C@H]1C(=O)N1CCC[C@H]1C(=O)N[C@@H](CO)C(=O)N[C@@H](CO)C(=O)O)C(C)C` [Compound A25] (H-YSHGTFTSDYSKYLD[Aib]KRAQEFV[Aib]WLEDEPSSGAPPPSS-OH; N-terminus assumed), the EC50 was 0.00501 nM on human GCGR (Table 3) and > 1 nM on human GLP-1R (setting [1]).

`CC(C)C[C@H](NC(=O)[C@H](Cc1ccc(O)cc1)NC(=O)[C@H](CCCCN)NC(=O)[C@H](CO)NC(=O)[C@H](Cc1ccc(O)cc1)NC(=O)[C@H](CC(=O)O)NC(=O)[C@H](CO)NC(=O)[C@@H](NC(=O)[C@H](Cc1ccccc1)NC(=O)[C@@H](NC(=O)CNC(=O)[C@H](Cc1c[nH]cn1)NC(=O)[C@H](CO)NC(=O)[C@@H](N)Cc1ccc(O)cc1)[C@@H](C)O)[C@@H](C)O)C(=O)N[C@@H](CC(=O)O)C(=O)NC(C)(C)C(=O)N[C@@H](CCCCN)C(=O)N[C@@H](CCCNC(=N)N)C(=O)N[C@@H](C)C(=O)N[C@@H](CCC(N)=O)C(=O)N[C@@H](CCC(=O)O)C(=O)N[C@@H](Cc1ccccc1)C(=O)N[C@H](C(=O)NC(C)(C)C(=O)N[C@@H](Cc1c[nH]c2ccccc12)C(=O)N[C@@H](CC(C)C)C(=O)N[C@@H](CCC(=O)O)C(=O)N[C@@H](CC(=O)O)C(=O)N[C@@H](CCC(=O)O)C(=O)N1CCC[C@H]1C(=O)N[C@@H](CO)C(=O)N[C@@H](CO)C(=O)NCC(=O)N[C@@H](C)C(=O)N1CCC[C@H]1C(=O)N1CCC[C@H]1C(=O)N1CCC[C@H]1C(=O)N[C@@H](CO)C(=O)N[C@@H](CCC(=O)O)C(=O)O)C(C)C` [Compound A26] (H-YSHGTFTSDYSKYLD[Aib]KRAQEFV[Aib]WLEDEPSSGAPPPSE-OH; N-terminus assumed): the results for the EC50 at human GCGR (Table 3) and at human GLP-1R (setting [1]) were 0.00794 nM and > 1 nM, respectively.

With `CC(C)C[C@H](NC(=O)[C@H](Cc1c[nH]c2ccccc12)NC(=O)[C@H](CCCCN)NC(=O)[C@H](CO)NC(=O)[C@H](Cc1ccc(O)cc1)NC(=O)[C@H](CC(=O)O)NC(=O)[C@H](CO)NC(=O)[C@@H](NC(=O)[C@H](Cc1ccccc1)NC(=O)[C@@H](NC(=O)CNC(=O)[C@H](Cc1c[nH]cn1)NC(=O)[C@@H](NC(=O)[C@@H](N)Cc1ccc(O)cc1)[C@@H](C)O)[C@@H](C)O)[C@@H](C)O)C(=O)N[C@@H](CC(=O)O)C(=O)N[C@@H](CO)C(=O)N[C@@H](CCCCN)C(=O)N[C@@H](CCCNC(=N)N)C(=O)N[C@@H](C)C(=O)N[C@@H](CCC(N)=O)C(=O)N[C@@H](CCC(=O)O)C(=O)N[C@@H](Cc1ccccc1)C(=O)N[C@H](C(=O)N[C@@H](CCCCN)C(=O)N[C@@H](Cc1c[nH]c2ccccc12)C(=O)N[C@@H](CC(C)C)C(=O)N[C@@H](CCC(=O)O)C(=O)N[C@@H](CC(=O)O)C(=O)N[C@@H](CCC(=O)O)C(=O)N1CCC[C@H]1C(=O)N[C@@H](CO)C(=O)N[C@@H](CO)C(=O)NCC(=O)N[C@@H](C)C(=O)N1CCC[C@H]1C(=O)N1CCC[C@H]1C(=O)N1CCC[C@H]1C(=O)N[C@@H](CO)C(=O)O)C(C)C` [Compound A42] (H-YTHGTFTSDYSKWLDSKRAQEFVKWLEDEPSSGAPPPS-OH; N-terminus assumed), the EC50 is 0.398 nM at human GCGR (Table 3) and > 1 nM on human GLP-1R (setting [1]).

With `CC(C)C[C@H](NC(=O)[C@H](Cc1c[nH]c2ccccc12)NC(=O)[C@H](CC(C)C)NC(=O)[C@@H](NC(=O)[C@H](Cc1ccccc1)NC(=O)[C@H](CCC(=O)O)NC(=O)[C@H](CCC(N)=O)NC(=O)[C@H](C)NC(=O)[C@H](CCCNC(=N)N)NC(=O)[C@H](CCCCN)NC(=O)C(C)(C)NC(=O)[C@H](CC(=O)O)NC(=O)[C@H](CC(C)C)NC(=O)[C@H](Cc1ccc(O)cc1)NC(=O)[C@H](CCCCN)NC(=O)[C@H](CO)NC(=O)[C@H](Cc1ccc(O)cc1)NC(=O)[C@H](CC(=O)O)NC(=O)[C@H](CO)NC(=O)[C@@H](NC(=O)[C@H](Cc1ccccc1)NC(=O)[C@@H](NC(=O)CNC(=O)[C@H](Cc1c[nH]cn1)NC(=O)[C@H](CO)NC(=O)[C@@H](N)Cc1ccc(O)cc1)[C@@H](C)O)[C@@H](C)O)C(C)C)C(=O)N[C@@H](CCC(=O)O)C(=O)N[C@@H](CC(=O)O)C(=O)N[C@@H](CCC(=O)O)C(=O)N1CCC[C@H]1C(=O)N[C@@H](CO)C(=O)N[C@@H](CO)C(=O)NCC(=O)N[C@@H](C)C(=O)N1CCC[C@H]1C(=O)N1CCC[C@H]1C(=O)N1CCC[C@H]1C(=O)N[C@@H](CO)C(=O)O` [Compound A53] (H-YSHGTFTSDYSKYLD[Aib]KRAQEFVLWLEDEPSSGAPPPS-OH; N-terminus assumed), the results for the EC50 on human GCGR (Table 3) and on human GLP-1R (setting [1]) were 0.00251 nM and > 1 nM, respectively.

Turning to `CC(C)C[C@H](NC(=O)[C@H](Cc1ccc(O)cc1)NC(=O)[C@H](CCCCN)NC(=O)[C@H](CO)NC(=O)[C@H](Cc1ccc(O)cc1)NC(=O)[C@H](CC(=O)O)NC(=O)[C@H](CO)NC(=O)[C@@H](NC(=O)[C@H](Cc1ccccc1)NC(=O)[C@@H](NC(=O)CNC(=O)[C@H](CCC(N)=O)NC(=O)[C@H](CO)NC(=O)[C@@H](N)Cc1ccc(O)cc1)[C@@H](C)O)[C@@H](C)O)C(=O)N[C@@H](CC(=O)O)C(=O)N[C@@H](CO)C(=O)N[C@@H](C)C(=O)N[C@@H](CCCNC(=N)N)C(=O)N[C@@H](C)C(=O)N[C@@H](CCC(N)=O)C(=O)N[C@@H](CCC(=O)O)C(=O)N[C@@H](Cc1ccccc1)C(=O)N[C@H](C(=O)N[C@@H](CCCCN)C(=O)N[C@@H](Cc1c[nH]c2ccccc12)C(=O)N[C@@H](CC(C)C)C(=O)N[C@@H](CCC(=O)O)C(=O)N[C@@H](CC(=O)O)C(=O)N[C@@H](CCC(=O)O)C(=O)N1CCC[C@H]1C(=O)N[C@@H](CCCCN)C(=O)N[C@@H](CO)C(=O)N[C@@H](CCCCN)C(=O)N[C@@H](C)C(=O)N1CCC[C@H]1C(=O)N1CCC[C@H]1C(=O)N1CCC[C@H]1C(=O)N[C@@H](CO)C(=O)O)C(C)C` [Compound A82] (H-YSQGTFTSDYSKYLDSARAQEFVKWLEDEPKSKAPPPS-OH; N-terminus assumed), the EC50 on human GCGR (Table 3) is 0.01 nM; at human GLP-1R (setting [1]), > 1 nM.

Consider `CC(C)C[C@H](NC(=O)[C@H](Cc1ccc(O)cc1)NC(=O)[C@H](CCCCN)NC(=O)[C@H](CO)NC(=O)[C@H](Cc1ccc(O)cc1)NC(=O)[C@H](CC(=O)O)NC(=O)[C@H](CO)NC(=O)[C@@H](NC(=O)[C@H](Cc1ccccc1)NC(=O)[C@@H](NC(=O)CNC(=O)[C@H](Cc1c[nH]cn1)NC(=O)[C@H](CO)NC(=O)[C@@H](N)Cc1ccc(O)cc1)[C@@H](C)O)[C@@H](C)O)C(=O)N[C@@H](CC(=O)O)C(=O)NC(C)(C)C(=O)N[C@@H](CCCCN)C(=O)N[C@@H](CCCNC(=N)N)C(=O)N[C@@H](C)C(=O)N[C@@H](CCC(N)=O)C(=O)N[C@@H](CCC(=O)O)C(=O)N[C@@H](Cc1ccccc1)C(=O)N[C@H](C(=O)NC(C)(C)C(=O)N[C@@H](Cc1c[nH]c2ccccc12)C(=O)N[C@@H](CC(C)C)C(=O)N[C@@H](CCC(=O)O)C(=O)N[C@@H](CC(=O)O)C(=O)N[C@@H](CCC(=O)O)C(=O)N1CCC[C@H]1C(=O)N[C@@H](CCCCN)C(=O)N[C@@H](CO)C(=O)NCC(=O)N[C@@H](C)C(=O)N1CCC[C@H]1C(=O)N1CCC[C@H]1C(=O)N1CCC[C@H]1C(=O)N[C@@H](CO)C(=O)O)C(C)C` [Compound A29] (H-YSHGTFTSDYSKYLD[Aib]KRAQEFV[Aib]WLEDEPKSGAPPPS-OH), for which the EC50 was 0.00794 nM on human GCGR (Table 3) and > 1 nM on human GLP-1R (setting [1]).
